Experimental data reported in patent publication US10259847B2, “Beta-hairpin peptidomimetics” (POLYPHOR AG, priority 2014, dated 2019).
Where a SMILES comes first, the peptide text is derived from it. Bridges are numbered along the chain shown (N, C = ends). [ ]: non-standard residue; d: D form. Tle = CC(C)(C)[C@H](N)C(=O)O; dDab = NCC[C@@H](N)C(=O)O; Orn = NCCC[C@H](N)C(=O)O; Dab = NCC[C@H](N)C(=O)O; Dap = NC[C@H](N)C(=O)O

How the values were obtained:
Type in all cases: cell-based
[1] = tested on: Acinetobacter baumannii DSM 30008; settings: DSM 30008
Protocol: (§1) Stock solutions were kept at +4° C., light protected.
(§2) The selective antimicrobial activities of the peptides were determined in 96-well plates (Greiner, polystyrene) by the standard NCCLS broth microdilution method (National Committee for Clinical Laboratory Standards 1993. Methods for dilution antimicrobial susceptibility tests for bacteria that grow aerobically, 3rd ed. Approved standard M7-A6; National Committee for Clinical laboratory standards, Wayne, Pa.) with slight modifications. Inocula of the microorganisms were diluted into Mueller-Hinton II (MH, cation adjusted) broth and compared with a 0.5 McFarland standard to give appr. 10^6 colony forming units (CFU)/mL. Aliquots (90 μl) of inoculate were added to 10 μl of MH broth+P-80 (Polysorbate 80, 0.002% final concentration) containing the peptide in serial two-fold dilutions. The following microorganisms were used to determine antibiotic selectivity of the peptides: Escherichia coli ATCC 25922, Klebsiella pneumoniae ATCC 13883 and Acinetobacter baumannii DSM 30008.

[2] = tested on: Klebsiella pneumoniae ATCC 13883; settings: ATCC 13883
Protocol: as §1, §2

[3] = tested on: Escherichia coli ATCC 25922; settings: ATCC 25922
Protocol: as §1, §2

[4] = tested on: human red blood cells (hRBC); assay: Hemolysis of human red blood cells; settings: red cells of human, 1 h, 100
Protocol: as §1
Percent hemolysis was calculated as follows: (OD540peptide/OD540H2O)×100%.

Structure (SMILES)	Acinetobacter baumannii DSM 30008 MIC [1]	Klebsiella pneumoniae ATCC 13883 MIC [2]	Escherichia coli ATCC 25922 MIC [3]	Hemolysis at 100 μg/mL [4]
CC(C)C[C@@H]1NC(=O)[C@@H]2CCCN2C(=O)[C@H]2CCCN2C(=O)[C@H](CO)NC(=O)[C@@H]2CCNC(=O)CC[C@H](NC1=O)C(=O)N[C@@H](Cc1ccc(O)cc1)C(=O)N[C@@H](CCN)C(=O)N[C@@H](CCCN)C(=O)N[C@H](CCN)C(=O)N[C@@H](CCN)C(=O)N[C@@H](Cc1c[nH]c3ccccc13)C(=O)N[C@@H](CCN)C(=O)N[C@@H](C(C)(C)C)C(=O)N2 [Example 19, cyclo(-Leu-Glu-Tyr-Dab-Orn-^DDab-Dab-Trp-Dab-tBuGly-Dab-Ser-^DPro-Pro-)] (HELM PEPTIDE1{L.E.Y.[Dab].[Orn].[NCC[C@@H](N[*:1])C(=O)[*:2]].[Dab].W.[Dab].[CC(C)(C)[C@H](N[*:1])C(=O)[*:2]].[Dab].S.[dP].P}$PEPTIDE1,PEPTIDE1,2:R3-11:R3|PEPTIDE1,PEPTIDE1,1:R1-14:R2$$$V2.0)	3 µg/mL	8 µg/mL	3 µg/mL	0%
CC(C)C[C@@H]1NC(=O)[C@@H]2CCCN2C(=O)[C@H]2CCCN2C(=O)[C@H](CO)NC(=O)[C@@H]2CNC(=O)C[C@H](NC1=O)C(=O)N[C@@H](Cc1ccc(O)cc1)C(=O)N[C@@H](CCN)C(=O)N[C@@H](CCCN)C(=O)N[C@H](CCN)C(=O)N[C@@H](CCN)C(=O)N[C@@H](Cc1c[nH]c3ccccc13)C(=O)N[C@@H](CCN)C(=O)N[C@@H](C(C)(C)C)C(=O)N2 [Example 21, cyclo(-Leu-Asp-Tyr-Dab-Orn-^DDab-Dab-Trp-Dab-tBuGly-Dap-Ser-^DPro-Pro-)] (cyclo(LDY[Dab][Orn][dDab][Dab]W[Dab][Tle][Dap]S[dP]P); lactam 2-11)	4 µg/mL	0.5 µg/mL	2 µg/mL	1%
CC(C)C[C@@H]1NC(=O)[C@@H]2CCCN2C(=O)[C@H]2CCCN2C(=O)[C@H](CO)NC(=O)[C@@H]2CCNC(=O)C[C@H](NC1=O)C(=O)N[C@@H](Cc1ccc(O)cc1)C(=O)N[C@@H](CCN)C(=O)N[C@@H](CCCN)C(=O)N[C@H](CCN)C(=O)N[C@@H](CCN)C(=O)N[C@@H](Cc1c[nH]c3ccccc13)C(=O)N[C@@H](CCN)C(=O)N[C@@H](C(C)(C)C)C(=O)N2 [Example 22, cyclo(-Leu-Asp-Tyr-Dab-Orn-^DDab-Dab-Trp-Dab-tBuGly-Dab-Ser-^DPro-Pro-)] (HELM PEPTIDE1{L.D.Y.[Dab].[Orn].[NCC[C@@H](N[*:1])C(=O)[*:2]].[Dab].W.[Dab].[CC(C)(C)[C@H](N[*:1])C(=O)[*:2]].[Dab].S.[dP].P}$PEPTIDE1,PEPTIDE1,2:R3-11:R3|PEPTIDE1,PEPTIDE1,1:R1-14:R2$$$V2.0)	1 µg/mL	0.5 µg/mL	0.5 µg/mL	1.5%
CC(C)C[C@@H]1NC(=O)[C@@H]2CCCN2C(=O)[C@H]2CCCN2C(=O)[C@H](CO)NC(=O)[C@@H]2CCNC(=O)C[C@H](NC1=O)C(=O)N[C@@H](Cc1ccc(O)cc1)C(=O)N[C@@H](CCN)C(=O)N[C@@H](CCCN)C(=O)N[C@@H](CCN)C(=O)N[C@@H](CCN)C(=O)N[C@@H](Cc1c[nH]c3ccccc13)C(=O)N[C@@H](CCN)C(=O)N[C@@H](C(C)(C)C)C(=O)N2 [Example 23, cyclo(-Leu-Asp-Tyr-Dab-Orn-Dab-Dab-Trp-Dab-tBuGly-Dab-Ser-^DPro-Pro-)] (HELM PEPTIDE1{L.D.Y.[Dab].[Orn].[Dab].[Dab].W.[Dab].[CC(C)(C)[C@H](N[*:1])C(=O)[*:2]].[Dab].S.[dP].P}$PEPTIDE1,PEPTIDE1,2:R3-11:R3|PEPTIDE1,PEPTIDE1,1:R1-14:R2$$$V2.0)	1 µg/mL	0.5 µg/mL	1 µg/mL	0%
